Entries after “also recorded” stand apart in the source; their conditions may differ.
Legend:
p-Stat3 and β-catenin = experiment: cancer stem cell markers in cancer xenograft models (immunofluorescence); format: in vivo, athymic nude mice; conditions: tumors harvested after first dosing
Experimental: The effects of 2-acetylnaphtho[2,3-b]furan-4,9-dione on cancer stem cell markers was also examined in cancer xenograft models with and without irinotecan. Human cancer cells were subcutaneously implanted into the right flank of 5-7 weeks old female athymic nude mice. When tumor size reached 200 mm^3, animals were treated with 2-acetylnaphtho[2,3-b]furan-4,9-dione, irinotecan, or a combination of 2-acetylnaphtho[2,3-b]furan-4,9-dione and irinotecan. Tumors were harvested after first dosing.
The harvested tissues were fixed in 3.7% neutral buffered formaldehyde at 4° C. for overnight. The paraffin was embedded, cut to about 5 microns, and affixed onto positively charged slides. After being baked and de-paraffinized, the slides with tumor or control tissues were incubated in 10 mM Sodium Citrate (pH 6.0) for 10 minutes. After antigen retrieval, slides were probed with primary antibodies P-STAT3 (rabbit, Cell Signaling, 1:100), 13-Catenine (mouse, Santa Cruz, 1:400) at 4° C. overnight, and then Alexa Fluor fluorescent dyes-conjugated secondary antibodies (1:500, Invitrogen). After mounting with ProLong mounting medium with DAPI (Invitrogen), the slides were examined under a Zeiss fluorescence microscope with 20× objective, and analyzed with Zen software.

FaDu cancer stem cells = experiment: stemness gene expression versus chemo- and targeted therapeutics; format: cell-based; conditions: 24 hours, 2-acetylnaphtho[2,3-b]furan-4,9-dione 2 mM, sunitinib 20 mM, gemcitabine 2 mM, carboplatin 32 mM, FIGS. 4(A)-(D)
Experimental: FIGS. 4(A)-(D) depict FaDu cancer stem cells that were treated for 24 hours with DMSO and: (i) 2-acetylnaphtho[2,3-b]furan-4,9-dione (2 mM) (FIG. 4(A)), (ii) sunitinib (20 mM) (FIG. 4(B)), (iii) gemcitabine (2 mM) (FIG. 4(C)), or (iv) carboplatin (32 mM) (FIG. 4(D)).

[1] = system: esophageal adenocarcinoma; experiment: combination with CAPDX regimen, esophageal adenocarcinoma patients; format: in vivo, human; conditions: Chemo Backbone CAPOX, 0 prior lines
Experimental: The effects of 2-acetylnaphtho[2,3-b]furan-4,9-dione in combination with capecitabine as part of a CAPDX regimen was assessed in adult patients with esophageal adenocarcinoma.
Four patients aged 58-82 who were pretreated with 0-3 lines of prior treatment received oral administration of 2-acetylnaphtho[2,3-b]furan-4,9-dione twice daily together with CAPDX. For example, 2-acetylnaphtho[2,3-b]furan-4,9-dione was administered at a dose of 240 mg BID or 480 mg BID in combination with CAPDX until progression of disease, unacceptable toxicity, or other discontinuation criterion was met. CAPDX was administered orally (capecitabine) and IV (oxaliplatin). Capecitabine 850 mg/m^2 was administered orally twice-daily for 14 consecutive days and repeated every 21 days or until progression of disease, unacceptable toxicity, or other discontinuation criterion was met. Oxaliplatin 130 mg/m^2 was administered IV and repeated every 21 days thereafter. If capecitabine was tolerated at the 850 mg/m^2 twice daily dose, dosage was increased to 1000 mg/m^2 twice daily as tolerated after the first cycle.

FaDu sphere cultures = experiment: qPCR cancer stem cell array, gene expression after treatment; format: cell-based; parameters: % Change ATM gene expression / % Change WEE1 gene expression / % Change ACTB gene expression / % Change MERTK gene expression / % Change FGFR2 gene expression / % Change EPCAM gene expression / % Change NOTCH2 gene expression / % Change DDR1 gene expression / % Change STAT3 gene expression / % Change LATS1 gene expression / % Change GSK3B gene expression / % Change TWIST2 gene expression / % Change ITGA2 gene expression / % Change ENG gene expression / % Change PLAUR gene expression / % Change SMO gene expression / % Change DACH1 gene expression / % Change EGF gene expression / % Change TGFBR1 gene expression / % Change ALCAM gene expression / % Change ALDH1A1 gene expression / % Change MAML1 gene expression / % Change HDAC1 gene expression / % Change RPLP0 gene expression / % Change WWC1 gene expression / % Change CD44 gene expression / % Change TAZ gene expression / % Change ITGA6 gene expression / % Change HPRT1 gene expression / % Change JAG1 gene expression / % Change ITGB1 gene expression / % Change IKBKB gene expression / % Change ID1 gene expression / % Change AXL gene expression / % Change DNMT1 gene expression / % Change ITGA4 gene expression / % Change KITLG gene expression / % Change ETFA gene expression / % Change IL8 gene expression / % Change JAK2 gene expression / % Change FOXP1 gene expression / % Change MYC gene expression / % Change NANOG gene expression / % Change YAP1 gene expression / % Change FLOT2 gene expression / % Change KLF17 gene expression / % Change BMI1 gene expression / % Change CHEK1 gene expression / % Change CD34 gene expression / % Change NOTCH1 gene expression / % Change LIN28A gene expression / % Change ATXN1 gene expression / % Change MUC1 gene expression / % Change POU5F1 gene expression / % Change ERBB2 gene expression / % Change CD24 gene expression / % Change PECAM1 gene expression / % Change SIRT1 gene expression / % Change NFKB1 gene expression: dose or concentration left out as unconfirmed
Experimental: Changes in gene expression following treatment with 2-acetylnaphtho[2,3-b]furan-4,9-dione were evaluated using a cancer stem cell PCR array.
FaDu sphere cultures were treated for 6 hours with DMSO (control) or 2-acetylnaphtho[2,3-b]furan-4,9-dione at 2 mM. RNA was isolated, reversed transcribed, and the resulting cDNA was analyzed using a qPCR cancer stem cell array. Glyceraldehyde 3-phosphate dehydrogenase (GAPDH) was used as a housekeeping gene to normalize the data.

hepatocellular carcinoma = experiment: combination with FOLFOX, hepatocellular carcinoma patients; format: in vivo, human; conditions: Chemo Backbone FOLFOX
Experimental: The effects of 2-acetylnaphtho[2,3-b]furan-4,9-dione in combination with FOLFOX were assessed in adult patients with hepatocellular carcinoma in a clinical study.
Patients who were pretreated with 1 and 4 lines of prior treatment, respectively, received oral administration of 2-acetylnaphtho[2,3-b]furan-4,9-dione twice daily together with FOLFOX. For example, 2-acetylnaphtho[2,3-b]furan-4,9-dione was administered at a dose of 240 mg BID in combination with FOLFOX. Oxaliplatin 85 mg/m^2 together with leucovorin 400 mg/m^2 were administered intravenously. 5-FU 400 mg/m^2 bolus was administered intravenously immediately following oxaliplatin/leucovorin infusion, followed by 5-FU 1200 mg/m^2/day (total 2400 mg/m^2 over 46-48 hours) continuous intravenous infusion. This regimen was repeated every 14 days thereafter or until progression of disease, unacceptable toxicity, or other discontinuation criterion was met.

cancer stem cells = experiment: effects on cancer stem cells with and without 5-fluorouracil; format: cell-based; conditions: FIG. 7
Text: The effects on cancer stem cells of 2-acetylnaphtho[2,3-b]furan-4,9-dione was also examined with and without 5-fluorouracil by using methods similar to those disclosed in U.S. pre-grant Publication No. 2012/0252763, Example 3.

[2] = FaDu sphere cultures, 6 hours, GAPDH-normalized, vs DMSO control

CCc1c2c(nc3ccc(OC(=O)N4CCC(N5CCCCC5)CC4)cc13)-c1cc3c(c(=O)n1C2)COC(=O)[C@]3(O)CC [irinotecan, reference compound]
staining for stem cell markers (p-Stat3 and β-catenin) (p-Stat3 and β-catenin; cancer xenograft tumor model, FIG. 6): enhanced staining
expression of self-renewal / CSC genes (β-Catenin, Nanog, Smo, Sox2) (FaDu cancer stem cells): increased CSC gene expression in certain cases

CC(=O)c1cc2c(o1)C(=O)c1ccccc1C2=O [2-acetylnaphtho[2,3-b]furan-4,9-dione]
Best Response, regression ([1]; Patient 0012, BBI608 240 mg bid): 50%
Best Response, regression ([1]; Patient 0021, BBI608 480 mg bid): 24%
expression of p-Stat3 and β-catenin stem cell markers (p-Stat3 and β-catenin; human colon cancer xenograft Tumor (SW480) in nude mice, FIG. 5): dramatically reduced expression
expression of self-renewal / CSC genes (β-Catenin, Nanog, Smo, Sox2) (FaDu cancer stem cells): decreased expression
% Change ACTB gene expression (FaDu sphere cultures; [2]): −24.49%
% Change ALCAM gene expression (FaDu sphere cultures; [2]): −36.13%
% Change ALDH1A1 gene expression (FaDu sphere cultures; [2]): −18.18%
% Change ATM gene expression (FaDu sphere cultures; [2]): −68.65%
% Change ATXN1 gene expression (FaDu sphere cultures; [2]): −45.26%
% Change AXL gene expression (FaDu sphere cultures; [2]): −48.50%
% Change B2M gene expression (FaDu sphere cultures; [2]): −27.69%
% Change BMI1 gene expression (FaDu sphere cultures; [2]): −47.40%
% Change CD24 gene expression (FaDu sphere cultures; [2]): −26.46%
% Change CD34 gene expression (FaDu sphere cultures; [2]): −88.18%
% Change CD44 gene expression (FaDu sphere cultures; [2]): −35.44%
% Change CHEK1 gene expression (FaDu sphere cultures; [2]): −28.88%
% Change DACH1 gene expression (FaDu sphere cultures; [2]): −36.55%
% Change DDR1 gene expression (FaDu sphere cultures; [2]): −38.59%
% Change DNMT1 gene expression (FaDu sphere cultures; [2]): −32.09%
% Change EGF gene expression (FaDu sphere cultures; [2]): −19.07%
% Change ENG gene expression (FaDu sphere cultures; [2]): −37.62%
% Change EPCAM gene expression (FaDu sphere cultures; [2]): −22.87%
% Change ERBB2 gene expression (FaDu sphere cultures; [2]): −43.81%
% Change ETFA gene expression (FaDu sphere cultures; [2]): −31.12%
% Change FGFR2 gene expression (FaDu sphere cultures; [2]): −41.18%
% Change FLOT2 gene expression (FaDu sphere cultures; [2]): −29.19%
% Change FOXP1 gene expression (FaDu sphere cultures; [2]): −29.76%
% Change GSK3B gene expression (FaDu sphere cultures; [2]): −38.06%
% Change HDAC1 gene expression (FaDu sphere cultures; [2]): −36.10%
% Change HPRT1 gene expression (FaDu sphere cultures; [2]): −33.81%
% Change ID1 gene expression (FaDu sphere cultures; [2]): −12.68%
% Change IKBKB gene expression (FaDu sphere cultures; [2]): −32.11%
% Change IL8 gene expression (FaDu sphere cultures; [2]): −7.62%
% Change ITGA2 gene expression (FaDu sphere cultures; [2]): −60.71%
% Change ITGA4 gene expression (FaDu sphere cultures; [2]): −11.52%
% Change ITGA6 gene expression (FaDu sphere cultures; [2]): −54.63%
% Change ITGB1 gene expression (FaDu sphere cultures; [2]): −50.45%
% Change JAG1 gene expression (FaDu sphere cultures; [2]): −14.24%
% Change JAK2 gene expression (FaDu sphere cultures; [2]): −47.94%
% Change KITLG gene expression (FaDu sphere cultures; [2]): −47.99%
% Change KLF17 gene expression (FaDu sphere cultures; [2]): −90.18%
% Change LATS1 gene expression (FaDu sphere cultures; [2]): −60.75%
% Change LIN28A gene expression (FaDu sphere cultures; [2]): −87.52%
% Change MAML1 gene expression (FaDu sphere cultures; [2]): −52.82%
% Change MERTK gene expression (FaDu sphere cultures; [2]): −65.78%
% Change MUC1 gene expression (FaDu sphere cultures; [2]): −27.42%
% Change MYC gene expression (FaDu sphere cultures; [2]): −3.91%
% Change NANOG gene expression (FaDu sphere cultures; [2]): −93.34%
% Change NFKB1 gene expression (FaDu sphere cultures; [2]): −25.54%
% Change NOTCH1 gene expression (FaDu sphere cultures; [2]): −46.24%
% Change NOTCH2 gene expression (FaDu sphere cultures; [2]): −64.37%
% Change PECAM1 gene expression (FaDu sphere cultures; [2]): −70.26%
% Change PLAUR gene expression (FaDu sphere cultures; [2]): −20.64%
% Change POU5F1 gene expression (FaDu sphere cultures; [2]): −77.31%
% Change RPLP0 gene expression (FaDu sphere cultures; [2]): −17.48%
% Change SIRT1 gene expression (FaDu sphere cultures; [2]): −43.35%
% Change SMO gene expression (FaDu sphere cultures; [2]): −55.56%
% Change STAT3 gene expression (FaDu sphere cultures; [2]): −22.87%
% Change TAZ gene expression (FaDu sphere cultures; [2]): −15.09%
% Change TGFBR1 gene expression (FaDu sphere cultures; [2]): −53.34%
% Change TWIST2 gene expression (FaDu sphere cultures; [2]): −21.59%
% Change WEE1 gene expression (FaDu sphere cultures; [2]): −42.86%
% Change WWC1 gene expression (FaDu sphere cultures; [2]): −51.64%
% Change YAP1 gene expression (FaDu sphere cultures; [2]): −47.45%
expression of cancer stem cell markers and genes such as Nanog, Axl, Atm, and Bmi-1 (FaDu sphere cultures; cancer stem cell PCR array): downregulated
Best Response, regression (hepatocellular carcinoma; Patient 0089, BBI608 240 mg bid, 1 prior line): 9%
Best Response, regression (hepatocellular carcinoma; Patient 0121, BBI608 240 mg bid, 4 prior lines): 9%

5-fluorouracil and 2-acetylnaphtho[2,3-b]furan-4,9-dione
effect of the combination on cancer stem cells / cancer stem cell growth (cancer stem cells; versus 5-fluorouracil alone and both agents alone): attenuated; also recorded: greater than additive effect

O=c1[nH]cc(F)c(=O)[nH]1 [5-fluorouracil, reference compound]
increase in the number of cancer stem cells compared to control cells (cancer stem cells): approximately 3 fold
expression of self-renewal / CSC genes (β-Catenin, Nanog, Smo, Sox2) (FaDu cancer stem cells): increased CSC gene expression in certain cases

CNC(=O)c1cc(Oc2ccc(NC(=O)Nc3ccc(Cl)c(C(F)(F)F)c3)c(F)c2)ccn1 [regorafenib]
expression of self-renewal / CSC genes (β-Catenin, Nanog, Smo, Sox2) (FaDu cancer stem cells): increased CSC gene expression in certain cases

From patent US20180098959A1, “METHODS FOR TREATING CANCER” (BOSTON BIOMEDICAL, INC., priority 2015, published 2018)
